According to US8865623B2, “Herbicidally active cyclic diones and derivatives thereof, processes for their preparation, compositions, and method of controlling weeds” (Syngenta Limited, priority 2009, dated 2014):

How the values were obtained:
Assay type in all cases: in vivo
[1] = test system: Alopecurus myosuroides (ALOMY); assay: Pre-emergence herbicidal activity, glasshouse pot test; details: Alopecurus myosuroides, 312 h; Rate 250 g/ha; pre-emergence spray; evaluated after 13 days; read-out: Pre-emergence activity ALOMY (100=total damage to plant; 0=no damage to plant)
Procedure, shortened: (§1)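 Pot-grown plants in standard soil received a spray one day post-sowing (pre-emergence) or after eight days' growth (post-emergence). Scoring took place 13 days later on a 0–100 scale, 100 meaning total damage.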

[2] = test system: Avena fatua (AVEFA); assay: as above; details: Avena fatua, 312 h; Rate 250 g/ha; pre-emergence spray; evaluated after 13 days; read-out: Pre-emergence activity AVEFA (100=total damage to plant; 0=no damage to plant)
Procedure, shortened: as §1

[3] = test system: Lolium perenne (LOLPE); assay: as above; details: Lolium perenne, 312 h; Rate 250 g/ha; pre-emergence spray; evaluated after 13 days; read-out: Pre-emergence activity LOLPE (100=total damage to plant; 0=no damage to plant)
Procedure, shortened: as §1

[4] = test system: Echinochloa crus-galli (ECHCG); assay: as above; details: Echinochloa crus-galli, 312 h; Rate 250 g/ha; pre-emergence spray; evaluated after 13 days; read-out: Pre-emergence activity ECHCG (100=total damage to plant; 0=no damage to plant)
Procedure, shortened: as §1

[5] = test system: Alopecurus myosuroides (ALOMY); assay: Post-emergence herbicidal activity, glasshouse pot test; details: Alopecurus myosuroides, 312 h, rate 250 g/ha, evaluated after 13 days, glasshouse, read-out: Post-emergence activity ALOMY (100=total damage to plant; 0=no damage to plant)
Procedure, shortened: as §1

[6] = test system: Avena fatua (AVEFA); assay: as above; details: Avena fatua, 312 h, rate 250 g/ha, evaluated after 13 days, glasshouse, read-out: Post-emergence activity AVEFA (100=total damage to plant; 0=no damage to plant)
Procedure, shortened: as §1

[7] = test system: Lolium perenne (LOLPE); assay: as above; details: Lolium perenne, 312 h, rate 250 g/ha, evaluated after 13 days, glasshouse, read-out: Post-emergence activity LOLPE (100=total damage to plant; 0=no damage to plant)
Procedure, shortened: as §1

[8] = test system: Echinochloa crus-galli (ECHCG); assay: as above; details: Echinochloa crus-galli, 312 h, rate 250 g/ha, evaluated after 13 days, glasshouse, read-out: Post-emergence activity ECHCG (100=total damage to plant; 0=no damage to plant)
Procedure, shortened: as §1

SMILES	pest or weed control at 250 g/ha [1] [%]	pest or weed control at 250 g/ha [2] [%]	pest or weed control at 250 g/ha [3] [%]	pest or weed control at 250 g/ha [4] [%]	pest or weed control at 250 g/ha [5] [%]	pest or weed control at 250 g/ha [6] [%]	pest or weed control at 250 g/ha [7] [%]	pest or weed control at 250 g/ha [8] [%]
CCc1ccc(Oc2nc3ccc(OC)cc3s2)cc1C1=C(O)CC2(CCOCC2)CC1=O [Example A-264]	90	80	90	100	90	90	100	100
CCc1ccc(Oc2ccc(Cl)cc2F)cc1C1=C(O)[C@@H]2CC[C@](C)(C1=O)C2(C)C (single isomer, unassigned) [Example A-95]	70	80	90	90	60	80	50	80
CCc1ccc(Oc2ccc(Cl)cc2Cl)cc1C1=C(O)C(C)(C)OC(C)(C)C1=O [Example A-19]	50	70	80	100	60	60	90	100
CCc1ccc(Oc2ncc(C(F)(F)F)cc2F)cc1C1=C(O)CC2(CCOCC2)CC1=O [Example A-273]	100	100	100	100	100	100	100	100
CCc1ccc(Oc2nc(C)c(Cl)c(N)n2)cc1C1=C(O)C(C)(C)OC(C)(C)C1=O [Example A-81]	30	10	40	90	50	50	30	70
CCc1ccc(Oc2ccc(Br)cc2F)cc1C1=C(O)[C@@H]2CC[C@](C)(C1=O)C2(C)C [Example A-238]	60	40	90	100	70	90	90	100
CCc1ccc(Oc2ccc(C#N)cc2C(F)(F)F)cc1C1=C(O)CC(C)(C)CC1=O [Example A-290]	0	0	0	20	0	0	10	60
CCc1ccc(Oc2nc3cc4c(cc3s2)OCCO4)cc1C1=C(O)C(C)(C)OC(C)(C)C1=O [Example A-215]	0	0	0	20	10	0	20	40
CCc1ccc(Oc2ccc(F)cc2)cc1C1=C(O)[C@H]2CC[C@H](C2)C1=O (single isomer, unassigned) [Example A-92]	40	30	90	100	20	10	30	80
CCc1ccc(Oc2nc3c(Cl)cc(Cl)cc3s2)cc1C1=C(O)C(C)(C)OC(C)(C)C1=O [Example A-221]	60	40	60	70	80	50	90	100
